Toxic doses and inconclusive results are not listed.
Tested on: L1210 leukemia ip in BDF1 mice, survival T/C
Experiment: NCI In Vivo Anticancer Drug Screen. Data for tumor model L1210 Leukemia (intraperitoneal) in B6D2F1 (BDF1) mice
Settings: endpoint: mean survival time, higher = longer survival
Summary of the method: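 Antitumor effect is assessed in tumor-bearing animals. Survival in the compound arm is compared with a vehicle-dosed control arm and expressed as their quotient.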

[1] = dose: 100.0 mg/kg/injection, schedule: Q01DX001 (ip), vehicle: carboxymethylcellulose (CMC)
[2] = dose: 200.0 mg/kg/injection, schedule: Q01DX001 (ip), vehicle: carboxymethylcellulose (CMC)
[3] = dose: 100.0 mg/kg/injection, schedule: Q01DX009 (ip), vehicle: saline with Tween-80
[4] = dose: 200.0 mg/kg/injection, schedule: Q01DX009 (ip), vehicle: saline with Tween-80
[5] = dose: 400.0 mg/kg/injection, schedule: Q01DX009 (ip), vehicle: saline with Tween-80
[6] = dose: 100.0 mg/kg/injection, schedule: Q01DX001 (ip), vehicle: Klucel (hydroxypropylcellulose) (HPC)
[7] = dose: 200.0 mg/kg/injection, schedule: Q01DX001 (ip), vehicle: Klucel (hydroxypropylcellulose) (HPC)
[8] = dose: 400.0 mg/kg/injection, schedule: Q01DX001 (ip), vehicle: Klucel (hydroxypropylcellulose) (HPC)
[9] = dose: 100.0 mg/kg/injection, schedule: Q04DX003 (ip), vehicle: saline
[10] = dose: 200.0 mg/kg/injection, schedule: Q04DX003 (ip), vehicle: saline
[11] = dose: 400.0 mg/kg/injection, schedule: Q04DX003 (ip), vehicle: saline
[12] = dose: 50.0 mg/kg/injection, schedule: Q01DX009 (ip), vehicle: saline with Tween-80
[13] = dose: 100.0 mg/kg/injection, schedule: Q04DX003 (ip), vehicle: Klucel (hydroxypropylcellulose) (HPC)

With CCCCCCCCCCCCCC[n+]1ccc(C#N)cc1 the T/C (dose: 7.5 mg/kg/injection, schedule: Q04DX003 (ip), vehicle: saline) was 101 % of control, the T/C (dose: 15.0 mg/kg/injection, schedule: Q04DX003 (ip), vehicle: saline) was 95 % of control and the T/C (dose: 30.0 mg/kg/injection, schedule: Q04DX003 (ip), vehicle: saline) was 96 % of control.

COC(=O)Cn1nnc2ccccc21 was tested, and the T/C (dose: 50.0 mg/kg/injection, schedule: Q01DX009 (ip), vehicle: saline) was 97 % of control, the T/C (dose: 100.0 mg/kg/injection, schedule: Q01DX009 (ip), vehicle: saline) was 105 % of control and the T/C (dose: 200.0 mg/kg/injection, schedule: Q01DX009 (ip), vehicle: saline) was 87 % of control.

For O=C1c2cccc3cccc(c23)C(=O)N1CC1CCCO1 (configuration not stated), the T/C (dose: 100.0 mg/kg/injection, schedule: Q01DX009 (ip), vehicle: Klucel (hydroxypropylcellulose) (HPC)) was 94 % of control, the T/C (dose: 200.0 mg/kg/injection, schedule: Q01DX009 (ip), vehicle: Klucel (hydroxypropylcellulose) (HPC)) was 94 % of control and the T/C (dose: 400.0 mg/kg/injection, schedule: Q01DX009 (ip), vehicle: Klucel (hydroxypropylcellulose) (HPC)) was 87 % of control.

With N#CC1(Nc2ccc(-c3ccc(Cl)cc3)cc2)CCCC1 the T/C (dose: 50.0 mg/kg/injection, schedule: Q01DX001 (ip), vehicle: carboxymethylcellulose (CMC)) was 91 % of control, the T/C [1] was 91 % of control and the T/C [2] was 87 % of control.

For O=C(O)Cc1ccc([N+](=O)[O-])cc1, the T/C [3] was 90 % of control, the T/C [4] was 93 % of control and the T/C [5] was 94 % of control.

With CCOC(=O)CNC(=O)OCCOc1ccc(-c2ccccc2)cc1 the T/C [3] was 98 % of control, the T/C [4] was 97 % of control and the T/C [5] was 95 % of control.

With N#Cc1ccc(NC(=O)N(CCCl)N=O)cc1 the T/C (dose: 1.0 mg/kg/injection, schedule: Q01DX009 (ip), vehicle: saline) was 150 % of control, the T/C (dose: 1.56 mg/kg/injection, schedule: Q01DX009 (ip), vehicle: saline) was 161 % of control and the T/C (dose: 6.25 mg/kg/injection, schedule: Q01DX Z (ip), vehicle: carboxymethylcellulose (CMC)) was 160 % of control. For the same compound, the T/C (dose: 12.5 mg/kg/injection, schedule: Q01DX Z (ip), vehicle: carboxymethylcellulose (CMC)) was 118 % of control, the T/C (dose: 25.0 mg/kg/injection, schedule: Q01DX Z (ip), vehicle: carboxymethylcellulose (CMC)) was 104 % of control and the T/C (dose: 37.5 mg/kg/injection, schedule: Q01DX001 (ip), vehicle: carboxymethylcellulose (CMC)) was 152 % of control. For the same compound, the T/C (dose: 75.0 mg/kg/injection, schedule: Q01DX001 (ip), vehicle: carboxymethylcellulose (CMC)) was 153 % of control and the T/C (dose: 150.0 mg/kg/injection, schedule: Q01DX001 (ip), vehicle: carboxymethylcellulose (CMC)) was 177 % of control.

In the case of c1ccc2c(c1)CCc1ccccc1N=N2, the T/C [6] is reported as 96 % of control, the T/C [7] is reported as 92 % of control and the T/C [8] is reported as 94 % of control.

For O=C1/C(=C\c2ccc(Cl)c(Cl)c2)N2CCC1CC2, the T/C (dose: 100.0 mg/kg/injection, schedule: Q04DX002 (ip), vehicle: Klucel (hydroxypropylcellulose) (HPC)) was 96 % of control, the T/C (dose: 200.0 mg/kg/injection, schedule: Q04DX002 (ip), vehicle: Klucel (hydroxypropylcellulose) (HPC)) was 104 % of control and the T/C (dose: 400.0 mg/kg/injection, schedule: Q04DX002 (ip), vehicle: Klucel (hydroxypropylcellulose) (HPC)) was 114 % of control.

With COC(=O)CC[N+]12CN3CN(CN(C3)C1)C2 the T/C (dose: 100.0 mg/kg/injection, schedule: Q01DX001 (ip), vehicle: saline) was 91 % of control, the T/C [9] was 106 % of control and the T/C (dose: 200.0 mg/kg/injection, schedule: Q01DX001 (ip), vehicle: saline) was 100 % of control. The T/C [10] was 106 % of control, the T/C (dose: 400.0 mg/kg/injection, schedule: Q01DX001 (ip), vehicle: saline) was 96 % of control and the T/C [11] was 105 % of control.

COC1OC(C)CC(O)C1O (configuration not stated) was tested, and the T/C [9] was 97 % of control, the T/C [10] was 103 % of control and the T/C [11] was 109 % of control.

N#CC(OC(OC(C#N)c1ccccc1)c1ccccc1)c1ccccc1 (configuration not stated) was tested, and the T/C [12] was 93 % of control, the T/C [3] was 93 % of control and the T/C [4] was 90 % of control.

With Cc1ccc(NCc2nc(N)nc(Nc3ccccc3)n2)cc1 the T/C (dose: 100.0 mg/kg/injection, schedule: Q04DX003 (ip), vehicle: saline with Tween-80) was 97 % of control, the T/C (dose: 200.0 mg/kg/injection, schedule: Q04DX003 (ip), vehicle: saline with Tween-80) was 92 % of control and the T/C (dose: 400.0 mg/kg/injection, schedule: Q04DX003 (ip), vehicle: saline with Tween-80) was 93 % of control.

For Cc1cc(C)n(N=C2CCCCC2)c(=O)c1C#N, the T/C [6] was 96 % of control, the T/C [13] was 100 % of control and the T/C [7] was 105 % of control. The T/C (dose: 200.0 mg/kg/injection, schedule: Q04DX003 (ip), vehicle: Klucel (hydroxypropylcellulose) (HPC)) was 99 % of control, the T/C [8] was 94 % of control and the T/C (dose: 400.0 mg/kg/injection, schedule: Q04DX003 (ip), vehicle: Klucel (hydroxypropylcellulose) (HPC)) was 89 % of control.

With COCC(COC)CC1CO1 (configuration not stated) the T/C [12] was 96 % of control, the T/C [3] was 100 % of control and the T/C [4] was 96 % of control.

Cc1ccc(S(=O)(=O)NNC(=O)c2ccccc2NCC(O)C(O)C(O)CO)cc1 (configuration not stated) was tested, and the T/C [1] was 98 % of control, the T/C [2] was 96 % of control and the T/C (dose: 400.0 mg/kg/injection, schedule: Q01DX001 (ip), vehicle: carboxymethylcellulose (CMC)) was 98 % of control.

With O=C(O/N=C1\C2CCC(C2)C1Cl)c1ccc([N+](=O)[O-])cc1 (configuration not stated) the T/C (dose: 25.0 mg/kg/injection, schedule: Q01DX009 (ip), vehicle: saline with Tween-80) was 94 % of control, the T/C [12] was 88 % of control and the T/C [13] was 102 % of control.
